Key:
Assay type in all cases: functional
[1] = test system: IGROV-1; experiment: Cytotoxicity against human IGROV1 cells after 48 hrs by SRB assay; settings: IGROV-1, 48 h, read-out: pGI50 (converted)
[2] = test system: HCT-15; experiment: Cytotoxicity against human HCT15 cells after 48 hrs by SRB assay; settings: HCT-15, 48 h
[3] = test system: LOX IMVI; experiment: Cytotoxicity against human LOXIMVI cells after 48 hrs by SRB assay
[4] = test system: MDA-MB-231; experiment: Cytotoxicity against human MDA-MB-231 cells after 48 hrs by SRB assay; settings: MDA-MB-231, 48 h, read-out: pGI50 (converted)
[5] = test system: Malme-3M; experiment: Cytotoxicity against human MALME-3M cells after 48 hrs by SRB assay
[6] = test system: SW-620; experiment: Cytotoxicity against human SW620 cells after 48 hrs by SRB assay; settings: SW-620, 48 h
[7] = test system: UACC-257; experiment: Cytotoxicity against human UACC257 cells after 48 hrs by SRB assay; settings: UACC-257, 48 h
[8] = test system: NCI-H460; experiment: Cytotoxicity against human NCI-H460 cells after 48 hrs by SRB assay; settings: NCI-H460, 48 h
[9] = test system: Hs-578T; experiment: Cytotoxicity against human Hs578T cells after 48 hrs by SRB assay
[10] = Cytotoxicity against human 786-O cells after 48 hrs by SRB assay; settings: 786-0, 48 h
[11] = test system: NCI-H23; experiment: Cytotoxicity against human NCI-H23 cells after 48 hrs by SRB assay; settings: NCI-H23, 48 h
[12] = test system: MDA-MB-468; experiment: Cytotoxicity against human MDA-MB-468 cells after 48 hrs by SRB assay; settings: MDA-MB-468, 48 h
[13] = test system: SK-OV-3; experiment: Cytotoxicity against human SKOV3 cells after 48 hrs by SRB assay; settings: SK-OV-3, 48 h
[14] = test system: HT-29; experiment: Cytotoxicity against human HT-29 cells after 48 hrs by SRB assay; settings: HT-29, 48 h
[15] = test system: SF-268; experiment: Cytotoxicity against human SF268 cells after 48 hrs by SRB assay; settings: SF-268, 48 h
[16] = test system: A549; experiment: Cytotoxicity against human A549 cells after 48 hrs by SRB assay; settings: A549, 48 h, read-out: pGI50 (converted)
[17] = test system: UO-31; experiment: Cytotoxicity against human UO31 cells after 48 hrs by SRB assay; settings: UO-31, 48 h
[18] = test system: EKVX; experiment: Cytotoxicity against human EKVX cells after 48 hrs by SRB assay
[19] = test system: HOP-92; experiment: Cytotoxicity against human HOP92 cells after 48 hrs by SRB assay; settings: HOP-92, 48 h
[20] = test system: KM12; experiment: Cytotoxicity against human KM12 cells after 48 hrs by SRB assay; settings: KM12, 48 h
[21] = test system: CAKI-1; experiment: Cytotoxicity against human Caki1 cells after 48 hrs by SRB assay; settings: CAKI-1, 48 h
[22] = test system: SK-MEL-5; experiment: Cytotoxicity against human SK-MEL-5 cells after 48 hrs by SRB assay; settings: SK-MEL-5, 48 h, read-out: pGI50 (converted)
[23] = test system: SN12C; experiment: Cytotoxicity against human SN12C cells after 48 hrs by SRB assay
[24] = test system: MDA-MB-435; experiment: Cytotoxicity against human MDA-MB-435 cells after 48 hrs by SRB assay; settings: MDA-MB-435, 48 h
[25] = test system: ACHN; experiment: Cytotoxicity against human ACHN cells after 48 hrs by SRB assay
[26] = test system: CCRF-CEM; experiment: Cytotoxicity against human CCRF-CEM cells after 48 hrs by SRB assay
[27] = test system: OVCAR-3; experiment: Cytotoxicity against human OVCAR3 cells after 48 hrs by SRB assay; settings: OVCAR-3, 48 h
[28] = test system: MOLT-4; experiment: Cytotoxicity against human MOLT4 cells after 48 hrs by SRB assay; settings: MOLT-4, 48 h
[29] = test system: RPMI-8226; experiment: Cytotoxicity against human RPMI8226 cells after 48 hrs by SRB assay; settings: RPMI-8226, 48 h
[30] = test system: NCI-H226; experiment: Cytotoxicity against human NCI-H226 cells after 48 hrs by SRB assay; settings: NCI-H226, 48 h
[31] = test system: SR; experiment: Cytotoxicity against human SR cells after 48 hrs by SRB assay
[32] = test system: K562; experiment: Cytotoxicity against human K562 cells after 48 hrs by SRB assay; settings: K562, 48 h
[33] = test system: BT-549; experiment: Cytotoxicity against human BT549 cells after 48 hrs by SRB assay; settings: BT-549, 48 h
[34] = test system: T47D; experiment: Cytotoxicity against human T47D cells after 48 hrs by SRB assay
[35] = test system: SK-MEL-28; experiment: Cytotoxicity against human SK-MEL-28 cells after 48 hrs by SRB assay; settings: SK-MEL-28, 48 h
[36] = test system: SF-295; experiment: Cytotoxicity against human SF295 cells after 48 hrs by SRB assay; settings: SF-295, 48 h, read-out: pGI50 (converted)
[37] = test system: HCT-116; experiment: Cytotoxicity against human HCT116 cells after 48 hrs by SRB assay; settings: HCT-116, 48 h
[38] = test system: U-251; experiment: Cytotoxicity against human U251 cells after 48 hrs by SRB assay; settings: U-251, 48 h, read-out: pGI50 (converted)
[39] = test system: MCF7; experiment: Cytotoxicity against human MCF7 cells after 48 hrs by SRB assay; settings: MCF7, 48 h
[40] = test system: HCC 2998; experiment: Cytotoxicity against human HCC2998 cells after 48 hrs by SRB assay; settings: HCC 2998, 48 h
[41] = test system: NCI-H522; experiment: Cytotoxicity against human NCI-H522 cells after 48 hrs by SRB assay; settings: NCI-H522, 48 h
[42] = test system: DU-145; experiment: Cytotoxicity against human DU145 cells after 48 hrs by SRB assay; settings: DU-145, 48 h
[43] = test system: COLO 205; experiment: Cytotoxicity against human COLO205 cells after 48 hrs by SRB assay; settings: COLO 205, 48 h, read-out: pGI50 (converted)
[44] = test system: SF-539; experiment: Cytotoxicity against human SF539 cells after 48 hrs by SRB assay; settings: SF-539, 48 h
[45] = test system: SK-MEL-2; experiment: Cytotoxicity against human SK-MEL-2 cells after 48 hrs by SRB assay; settings: SK-MEL-2, 48 h
[46] = test system: TK-10; experiment: Cytotoxicity against human TK10 cells after 48 hrs by SRB assay; settings: TK-10, 48 h
[47] = Cytotoxicity against human NCI-ADR-RES cells after 48 hrs by SRB assay
[48] = test system: A498; experiment: Cytotoxicity against human A498 cells after 48 hrs by SRB assay; settings: A498, 48 h
[49] = test system: M14; experiment: Cytotoxicity against human M14 cells after 48 hrs by SRB assay; settings: M14, 48 h
[50] = test system: PC-3; experiment: Cytotoxicity against human PC3 cells after 48 hrs by SRB assay; settings: PC-3, 48 h
[51] = test system: SNB-75; experiment: Cytotoxicity against human SNB75 cells after 48 hrs by SRB assay; settings: SNB-75, 48 h
[52] = test system: HL-60; experiment: Cytotoxicity against human HL60 cells after 48 hrs by SRB assay; settings: HL-60, 48 h
[53] = test system: RXF 393; experiment: Cytotoxicity against human RXF393 cells after 48 hrs by SRB assay; settings: RXF 393, 48 h
[54] = test system: SNB-19; experiment: Cytotoxicity against human SNB19 cells after 48 hrs by SRB assay; settings: SNB-19, 48 h
[55] = test system: OVCAR-5; experiment: Cytotoxicity against human OVCAR5 cells after 48 hrs by SRB assay; settings: OVCAR-5, 48 h
[56] = test system: UACC-62; experiment: Cytotoxicity against human UACC62 cells after 48 hrs by SRB assay; settings: UACC-62, 48 h
[57] = test system: OVCAR-8; experiment: Cytotoxicity against human OVCAR8 cells after 48 hrs by SRB assay; settings: OVCAR-8, 48 h, read-out: pGI50 (converted)
[58] = test system: HOP-62; experiment: Cytotoxicity against human HOP62 cells after 48 hrs by SRB assay; settings: HOP-62, 48 h
[59] = test system: OVCAR-4; experiment: Cytotoxicity against human OVCAR4 cells after 48 hrs by SRB assay; settings: OVCAR-4, 48 h

CO[C@H](C(=O)[C@@H](O)[C@@H](C)O)[C@@H]1Cc2cc3cc(O[C@H]4C[C@@H](O[C@H]5C[C@@H](O)[C@H](O)[C@@H](C)O5)[C@H](O)[C@@H](C)O4)c(C)c(O)c3c(O)c2C(=O)[C@H]1O[C@H]1C[C@@H](O[C@H]2C[C@@H](O[C@H]3C[C@H](O)[C@H](O)[C@@H](C)O3)[C@H](O)[C@@H](C)O2)[C@H](O)[C@@H](C)O1 showed a GI50 [1] of 75.9 nM, a GI50 [2] of 1050 nM and a GI50 [3] of 20.4 nM. It also gave a GI50 [4] of 132 nM, a GI50 [5] of 24 nM and a GI50 [6] of 29.5 nM. For the same molecule, the GI50 [7] was 69.2 nM, the GI50 [8] was 21.4 nM and the GI50 [9] was 28.2 nM. It also gave a GI50 [10] of 61.7 nM, a GI50 [11] of 41.7 nM and a GI50 [12] of 50.1 nM. The GI50 [13] was 102 nM, the GI50 [14] was 75.9 nM and the GI50 [15] was 30.9 nM. It also gave a GI50 [16] of 41.7 nM, a GI50 [17] of 166 nM and a GI50 [18] of 135 nM. For the same molecule, the GI50 [19] was 30.2 nM, the GI50 [20] was 29.5 nM and the GI50 [21] was 229 nM. It also gave a GI50 [22] of 27.5 nM, a GI50 [23] of 35.5 nM and a GI50 [24] of 42.7 nM. It also gave a GI50 [25] of 155 nM, a GI50 [26] of 28.2 nM and a GI50 [27] of 69.2 nM. For the same molecule, the GI50 [28] was 47.9 nM, the GI50 [29] was 11.8 nM and the GI50 [30] was 45.7 nM. The GI50 [31] was 14.1 nM, the GI50 [32] was 24.6 nM and the GI50 [33] was 17 nM. It also gave a GI50 [34] of 44.7 nM, a GI50 [35] of 27.5 nM and a GI50 [36] of 39.8 nM. For the same molecule, the GI50 [37] was 19.5 nM, the GI50 [38] was 23.4 nM and the GI50 [39] was 12.9 nM. It also gave a GI50 [40] of 61.7 nM, a GI50 [41] of 14.1 nM and a GI50 [42] of 91.2 nM. It also gave a GI50 [43] of 49 nM, a GI50 [44] of 33.1 nM and a GI50 [45] of 33.9 nM. For the same molecule, the GI50 [46] was 129 nM, the GI50 [47] was 7760 nM and the GI50 [48] was 32.4 nM. It also gave a GI50 [49] of 100 nM, a GI50 [50] of 100 nM and a GI50 [51] of 30.2 nM. It also gave a GI50 [52] of 53.7 nM, a GI50 [53] of 25.7 nM and a GI50 [54] of 43.6 nM. For the same molecule, the GI50 [55] was 79.4 nM, the GI50 [56] was 12.3 nM and the GI50 [57] was 53.7 nM. The GI50 [58] was 56.2 nM and the GI50 [59] was 209 nM.
